From the supplement of paper PMC11451515

Test system: NOMO1
Assay: cell viability relative to DMSO control; higher = less cytotoxic
Settings: 48 h
Summary of the method: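 Viability, reported as a per-plate percentage of DMSO wells with cell-free wells as background, came from CellTiter-Glo One luminescence. Reading took place after 48 h at 37°C. Before that, NOMO1 or SEM (500 cells/well) or P12-Ichikawa (1000 cells/well) leukemia cells, adapted for at least four passages in each medium, were seeded in 1536-well plates (5 μl) and pin-dosed with library compounds in DMSO, 47 μM to 0.79 nM over 11 threefold points.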

[1] = HPLM + 10% dialyzed FBS, 0.000781 µM
[2] = HPLM + 10% dialyzed FBS, 0.00234 µM
[3] = HPLM + 10% dialyzed FBS, 0.00702 µM
[4] = HPLM + 10% dialyzed FBS, 0.0211 µM
[5] = HPLM + 10% dialyzed FBS, 0.0632 µM
[6] = HPLM + 10% dialyzed FBS, 0.19 µM
[7] = HPLM + 10% dialyzed FBS, 0.569 µM
[8] = HPLM + 10% dialyzed FBS, 1.71 µM
[9] = HPLM + 10% dialyzed FBS, 5.12 µM
[10] = HPLM + 10% dialyzed FBS, 15.4 µM
[11] = HPLM + 10% dialyzed FBS, 46.1 µM
[12] = RPMI 5 mM glucose + 10% FBS, 0.000781 µM
[13] = RPMI 5 mM glucose + 10% FBS, 0.00234 µM
[14] = RPMI 5 mM glucose + 10% FBS, 0.00702 µM
[15] = RPMI 5 mM glucose + 10% FBS, 0.0211 µM
[16] = RPMI 5 mM glucose + 10% FBS, 0.0632 µM
[17] = RPMI 5 mM glucose + 10% FBS, 0.19 µM
[18] = RPMI 5 mM glucose + 10% FBS, 0.569 µM
[19] = RPMI 5 mM glucose + 10% FBS, 1.71 µM
[20] = RPMI 5 mM glucose + 10% FBS, 5.12 µM
[21] = RPMI 5 mM glucose + 10% FBS, 15.4 µM
[22] = RPMI 5 mM glucose + 10% FBS, 46.1 µM
[23] = RPMI 5 mM glucose + 10% dialyzed FBS, 0.000781 µM
[24] = RPMI 5 mM glucose + 10% dialyzed FBS, 0.00234 µM
[25] = RPMI 5 mM glucose + 10% dialyzed FBS, 0.00702 µM
[26] = RPMI 5 mM glucose + 10% dialyzed FBS, 0.0211 µM
[27] = RPMI 5 mM glucose + 10% dialyzed FBS, 0.0632 µM
[28] = RPMI 5 mM glucose + 10% dialyzed FBS, 0.19 µM
[29] = RPMI 5 mM glucose + 10% dialyzed FBS, 0.569 µM
[30] = RPMI 5 mM glucose + 10% dialyzed FBS, 1.71 µM
[31] = RPMI 5 mM glucose + 10% dialyzed FBS, 5.12 µM
[32] = RPMI 5 mM glucose + 10% dialyzed FBS, 15.4 µM
[33] = RPMI 5 mM glucose + 10% dialyzed FBS, 46.1 µM

Row | SMILES | cell viability [1] [%] | cell viability [2] [%] | cell viability [3] [%] | cell viability [4] [%] | cell viability [5] [%] | cell viability [6] [%] | cell viability [7] [%] | cell viability [8] [%] | cell viability [9] [%] | cell viability [10] [%] | cell viability [11] [%] | cell viability [12] [%] | cell viability [13] [%] | cell viability [14] [%] | cell viability [15] [%] | cell viability [16] [%] | cell viability [17] [%] | cell viability [18] [%] | cell viability [19] [%] | cell viability [20] [%] | cell viability [21] [%] | cell viability [22] [%] | cell viability [23] [%] | cell viability [24] [%] | cell viability [25] [%] | cell viability [26] [%] | cell viability [27] [%] | cell viability [28] [%] | cell viability [29] [%] | cell viability [30] [%] | cell viability [31] [%] | cell viability [32] [%] | cell viability [33] [%]
1 | O=C(OC)[C@]12CC[C@@]3(C)[C@]4(C)CC[C@H]5[C@@](C)(C)C(=O)C(=C[C@]5(C)C4=CC(=O)[C@@H]3[C@@H]2C[C@](C)(C)CC1)C#N | 95 | 100 | 90.6 | 112 | 110 | 94.1 | 113 | 96.1 | 110 | 2.47 | 2.86 | 93.9 | 99.8 | 89.5 | 82.1 | 99.2 | 94.2 | 88.9 | 84.7 | 88.6 | 2.76 | 2.71 | 87.2 | 92 | 96.5 | 96.6 | 102 | 112 | 85 | 84.6 | 85.7 | 2.44 | 2.7
2 | CC\1=C(C(\N=C(/N1)C2=CC(=NC=C2)Cl)C3=C(F)C=C(Cl)C=C3)/C(=O)NC4=C(F)C=C5[NH]N=CC5=C4 (configuration not stated) | 85.8 | 97.5 | 108 | 116 | 112 | 96.7 | 107 | 110 | 105 | 115 | 27 | 101 | 100 | 101 | 104 | 95.3 | 93.4 | 95.7 | 98.2 | 89 | 85.3 | 29.4 | 94.7 | 96.6 | 122 | 111 | 108 | 99.8 | 106 | 98.2 | 82.7 | 97.3 | 40.7
3 | CC[C@H](CC#N)OC(=O)N[C@@H](C)c1cccc(NC(=O)Nc2ccc(-c3cnco3)c(OC)c2)c1 | 117 | 114 | 119 | 105 | 127 | 111 | 98.2 | 76.4 | 38.9 | 32.1 | 35.1 | 111 | 104 | 121 | 107 | 114 | 105 | 113 | 66.8 | 38.3 | 25.9 | 22.3 | 117 | 106 | 115 | 120 | 111 | 112 | 91 | 84 | 51.9 | 39.4 | 35.8
4 | COc1ccc(CC2NCCc3cc(OC)c(OC)cc32)cc1OC (configuration not stated) | 91.9 | 87.5 | 82.6 | 103 | 102 | 98.7 | 91.6 | 87.4 | 101 | 93.7 | 98.4 | 88.1 | 86.2 | 87 | 90.8 | 86.8 | 89.3 | 89.7 | 94.7 | 86.6 | 89.4 | 97.1 | 79.5 | 84.1 | 83.9 | 91.2 | 86.3 | 89.2 | 82.9 | 91 | 89.5 | 73.3 | 85.4
5 | CCN(CC)CC#CCOC(=O)C(O)(c1ccccc1)C1CCCCC1 (configuration not stated) | – | – | – | – | – | – | – | – | – | – | – | 133 | 115 | 122 | 113 | 138 | 127 | 117 | 137 | 120 | 125 | 117 | 128 | 121 | 120 | 124 | 140 | 123 | 140 | 132 | 135 | 134 | 120
6 | ClC1=C(N\C2=N\CCN2)C3=NSN=C3C=C1 | – | – | – | – | – | – | – | – | – | – | – | 108 | 119 | 120 | 123 | 112 | 118 | 119 | 135 | 117 | 125 | 144 | 107 | 127 | 114 | 132 | 133 | 128 | 140 | 143 | 161 | 153 | 140
7 | CC\1=C/C=C\C=[N]1[Pt](N)(Cl)Cl | 118 | 105 | 111 | 110 | 108 | 130 | 131 | 98.8 | 106 | 129 | 108 | 96.4 | 95.6 | 93.4 | 103 | 99.6 | 113 | 106 | 88.7 | 106 | 110 | 93.3 | 107 | 90.8 | 96.6 | 95.3 | 96.4 | 111 | 97.3 | 104 | 107 | 109 | 96.3
8 | C[C@]\12CC[C@H](O)CC1=C/CC3C2CC[C@@]\4(C)C3C\C=C4[N]5C=NC6=C5C=CC=C6 (some centres not stated) | 95.5 | 110 | 99.5 | 96.7 | 105 | 115 | 117 | 102 | 97 | 116 | 110 | 96.4 | 99 | 100 | 103 | 112 | 109 | 117 | 101 | 99.2 | 125 | 100 | 84.8 | 101 | 97.3 | 124 | 110 | 122 | 117 | 113 | 104 | 105 | 112
